Test [1] has as its system proteases in the egg shell washings (ESW) of lice eggs. Nature of the test: Gelatine substrate SDS-PAGE of egg shell washings treated with protease inhibitors. Format: biochemical, Pediculus humanus humanus. The settings on record: 37° C., 3 hrs. The method, then: Within 12 hours of hatching 50 body lice eggs (Pediculus humanus humanus) were removed from the hair and placed in a 1 ml eppendorf tube. 20 μL of distilled water was added to the unhatched eggs and the preparation incubated for 30 minutes at 32° C. The 20 μL was recovered, freeze dried and stored at −70° C. A number of other samples were also collected as described. Hair samples from which unhatched lice eggs had been removed were also collected and incubated as described above. In addition, a sample of unhatched eggs and a sample of hair from which lice eggs had been removed were collected 7 days post laying (within 24 hrs of egg hatching). Both samples were washed in 10 mls of a 1% solution of sodium hypochlorite for 1 minute followed by a 5×1 minute washes in 25 mls in distilled water to remove the hypochlorite. These samples were then incubated in […] of distilled water as described above. In addition, a group of 25 lice eggs that were within 24 hours of hatching, were pretreated with 1% sodium hypochlorite, washed as described above and left to hatch. Within 1-2 hours after hatching the empty egg shells were incubated in 20 μL of distilled water as described above, the washings collected from the hatched egg shells and stored at −70° C. All of the extract samples were then freeze-dried overnight. The freeze-dried samples were then resuspended in […] of non-reducing SDS sample buffer, centrifuged at 10,000 g for 2 minutes and the entire 15 μL loaded on to 10% gelatine substrate SDS-PAGE gels. Gels were run at 4° C. for 10 minutes at 10 mA followed by a further 25 minutes at 15 mA per gel. They were then incubated for 2×20 minutes in a 2.5% Triton-X 100 solution followed by a three hour incubation in 0.1M Tris/HCl containing 1 mM CaCl2 pH 8.0. Activity was detected as clear areas on the gel the result of protease activity degrading the gelatine within the gel.
10% SDS-PAGE gelatine substrate gels were loaded with freeze dried egg shell washings from 100 lice eggs that had been resuspended in 50 μl of non-reducing sample buffer with samples run at 10 μl per lane. Gels were run at 4° C. for 10 minutes at 10 mA per gel followed by a further 25 minutes at 15 mA per gel. Gels were then cut into strips and each strip incubated for 2×20 minutes in a 2.5% Triton-X 100 solution containing a specific inhibitor. The inhibitors used were the serine protease inhibitor PMSF (5 mM), the metalloprotease inhibitor 1,10-phenanthroline (10 mM), the aspartic protease Pepstatin (5 μM) and the cysteine inhibitor E-64 (10 μM). The gel strips were then incubated in 0.1M Tris/HCl containing 1 mM CaCl2 pH 8 containing the different protease inhibitors for 3 hrs at 37° C., before being stained in Coomassie blue and destained as previously described.

The subject of another test is lice eggs. The experiment in a line: Time course in vitro lice egg hatching assay. Format: in vivo, Pediculus humanus humanus.
The subject of test [2] is Helicoverpa armigera eggs (Tatura×Toowoomba strains). Nature of the test: Egg hatch of Helicoverpa armigera after exposure to inhibitor. The settings on record: for % Inhibition of egg hatch relative to control / Number hatched / Number unhatched / % Inhibition of egg hatch relative to the control: day 6 post laying.
Method: Several hundred Helicoverpa armigera eggs (Tatura×Toowoomba strains) were collected, that had been laid on fine mesh cloth over a 24 hour period.
Batches of Helicoverpa eggs were exposed to a specific inhibitor solution for between 2-10 seconds the excess solution drained by blotting with dry tissue paper. The egg masses were then placed in a humid box at 25 degrees until egg hatch. Control eggs were exposed to absolute methanol as described above.
Test [3] concerns Plutella xylostella eggs (Waite strain). The experiment in a line: Reversal of ovicidal effect by FeSO4 on Plutella xylostella eggs. Type of test: in vivo. As for the experimental part:
(§1) Within 24 hours of collection the following experimental design was chosen. Batches of eggs were exposed to 10 mM 6,69-dimethyl-2,29-dipyridyl for 2 seconds while additional batches of eggs were exposed to the solvent only (Methanol) for 2 seconds. All batches of eggs were allowed to air dry for 20 minutes at room temperature. The eggs were then given a 2 second exposure to FeSO4 at either 10, 5 or 1 mM, air dried and put in the incubator at 24° C. and allowed to hatch over the next 6 days. In addition, a positive control of 10 mM 6,69-dimethyl-2,29-dipyridyl was set up in which eggs were exposed to this compound for 2 seconds, air dried and placed in the incubator.
as §1, with “10 mM 5,59-dimethyl-2,29-dipyridyl for 2” for “10 mM 6,69-dimethyl-2,29-dipyridyl for 2”, “FeSO4 at 10, 5” for “FeSO4 at either 10, 5”, “put in an incubator at” for “put in the incubator at”, “of 10 mM, 5,59-dimethyl-2,29-dipyridyl was set” for “of 10 mM 6,69-dimethyl-2,29-dipyridyl was set”

In another test the test system is B. ovis eggs. Nature of the test: Egg hatching in Bovicola ovis. Format: in vivo. The settings on record: 10 mM. As for the experimental part: B. ovis eggs were collected from the wool of sheep that were infested with this parasite. The eggs were collected using forceps and with the aid of a dissecting microscope and placed in 24 well tissue culture plates in duplicate lots of 10 eggs per replicate. The eggs were then exposed to either methanol alone (control) or the test compounds for either 10 minutes or 1 minute before being removed from the wells and placed into individual glass vials containing a diet at the base of the tube. The tubes were placed in plastic containers containing a salt solution (to keep humidity constant at 68%) and the containers maintained at a temperature 32° C. The eggs were monitored for hatching over the following 12 days and % hatch inhibition determined in comparison to the controls.

For test [4], the system named is Plutella xylostella eggs (Waite strain). Nature of the test: Egg hatch of Plutella xylostella after dipping in inhibitor.
Method: The egg masses were then placed in a humid box at 25 degrees until egg hatch. Control eggs were exposed to absolute methanol as described above. At day 6 post laying the eggs were assessed from the different treatments and the percentage of egg hatch determined relative to the control as shown in Table 9.
Batches of Plutella eggs that were laid on either fine cloth or parafilm were dipped in a specific inhibitor solution for between 2-10 seconds, the excess solution was drained by blotting with dry tissue paper. The egg masses were then placed in a humid box at 25 degrees until egg hatch. Control eggs were exposed to absolute methanol as described above or not treated.
The egg masses were then placed in a humid box at 25 degrees until egg hatch. Control eggs were exposed to absolute ethanol as described above. On day 6 post laying the eggs were assessed from the different treatments and the percentage of egg hatch determined relative to the control.
Where [5] appears, read: per replicate, […], concentration not given.
[6] abbreviates: 10 and 1 mM, listed as 6,6′ dimethyl-2,2′ dipyridyl.
The mark [7] stands for this setting: 10 mM followed by 2 second exposure to 1 mM FeSO4.
[8] abbreviates: 10 mM followed by 2 second exposure to 5 mM FeSO4.
[9] abbreviates: 10 mM followed by 2 second exposure to 10 mM FeSO4.
Setting [10] is: 10 mM followed by 2 second exposure to MEOH.
Setting [11] is: 10 mM, 2 seconds, (+ve) control, no second exposure.
Where [12] appears, read: Example 12, 0.001 mM, day 6 post laying.
Where [13] appears, read: Example 12, 0.01 mM, day 6 post laying.
Setting [14] is: Example 12, 0.1 mM, day 6 post laying.
Setting [15] is: Example 12, 1 mM, day 6 post laying.
Where [16] appears, read: Example 12, 10 mM, day 6 post laying.
The mark [17] stands for this setting: Example 13, eggs laid on cloth, 0.01 mM.
Where [18] appears, read: Example 13, eggs laid on cloth, 0.1 mM.
[19] abbreviates: Example 13, eggs laid on cloth, 1 mM.
Setting [20] is: Example 13, eggs laid on cloth, 10 mM.
[21] abbreviates: Example 13, eggs laid on parafilm, 0.01 mM.
[22] abbreviates: Example 13, eggs laid on parafilm, 0.1 mM.
Setting [23] is: Example 13, eggs laid on parafilm, 1 mM.
The mark [24] stands for this setting: Example 13, eggs laid on parafilm, 10 mM.

“Also recorded” adds a separate entry of the source. Square brackets hold non-standard residues; d marks the D form. Peptide text beside a SMILES is read from it. * marks the point of attachment. Sta = CC(C)C[C@H](N)[C@@H](O)CC(=O)O; Isovaleryl = CC(C)CC(=O)*

Take `CC(C)C[C@H](NC(=O)[C@H]1O[C@@H]1C(=O)O)C(=O)NCCCCN=C(N)N` [E64]: the “protease activity of ESW on gelatine SDS-PAGE after inhibitor treatment” value (shortened to “protease activity … after inhibitor treatment”) in test [1] (10 μM inhibitor) was “No reduction in protease activity”.
Consider `CC(C)CC(=O)N[C@H](C(=O)N[C@H](C(=O)N[C@@H](CC(C)C)[C@@H](O)CC(=O)N[C@@H](C)C(=O)N[C@@H](CC(C)C)[C@@H](O)CC(=O)O)C(C)C)C(C)C` [pepstatin] (Isovaleryl-VV[Sta]A[Sta]-OH), for which the “protease activity … after inhibitor treatment” value in test [1] (5 μM inhibitor, data not shown) is “did not show any reduction in protease activity; also recorded: No reduction in protease activity”.
A word on the % Inhibition: it is how much of the control response was suppressed. Regarding `Cc1cccc(-c2cccc(C)n2)n1` [6,6′-dimethyl-2,2′-dipyridyl], the “inhibition of lice egg hatching (in words)” value in the test on lice eggs (in vivo) is given as “completely inhibited”. Further, the “H (number of eggs successfully hatched)” value in the test with lice eggs (setting [5]) worked out at 0. For the same compound, in the test with lice eggs (setting [5]), the “Ph (number of eggs partly hatched)” value was 0. For the same compound, the “inhibition of egg hatching of Helicoverpa armigera (in words)” value in test [2] (0.1 mM) is “no inhibition of egg hatching”; in test [2] (10 and 1 mM), “significantly inhibit the egg hatching”; in test [2] (setting [6]), “significantly inhibit egg hatching”; in test [2] (concentrations below 1 mM), “No inhibition”. Moreover, the “% Inhibition of egg hatch relative to control” value in test [2] (Example 14, 0.001 mM) is 0%; in test [2] (Example 14, 0.01 mM), 0%; in test [2] (Example 14, 0.1 mM), 0%; in test [2] (Example 14, 1 mM) it was 97%; in test [2] (Example 14, 10 mM), 94%; in test [4] (setting [12]), 0%. The “% Inhibition of egg hatch relative to control” value in test [4] (setting [13]) turned out to be 0%; in test [4] (setting [14]) it was 0%; in test [4] (setting [15]) it was 100%; in test [4] (setting [16]), 100%. Also, the Number hatched in test [2] (Example 14, 1 mM) is listed as 4; in test [2] (Example 14, 10 mM) it was 7; in test [2] (Example 15, 0.1 mM), 70; in test [2] (Example 15, 1 mM) it was 2; in test [2] (Example 15, 10 mM), 3; in test [3] (setting [7]) it was 33. The Number hatched in test [3] (setting [8]) was 25; in test [3] (setting [9]), 12; in test [3] (setting [10]), 3; in test [3] (setting [11]), 0; in test [4] (setting [12]), 11; in test [4] (setting [13]), 13. Also, the Number hatched was 23 in test [4] (setting [14]); 0 in test [4] (setting [15]); 0 in test [4] (setting [16]); 23 in test [4] (setting [17]); 49 in test [4] (setting [18]); 0 in test [4] (setting [19]). In addition, the Number hatched is given as 0 in test [4] (setting [20]); 92 in test [4] (setting [21]); 65 in test [4] (setting [22]); 0 in test [4] (setting [23]); 0 in test [4] (setting [24]). Also, the Number unhatched was determined as 140 in test [2] (Example 14, 1 mM); 98 in test [2] (Example 14, 10 mM); 0 in test [2] (Example 15, 0.1 mM); 61 in test [2] (Example 15, 1 mM); 48 in test [2] (Example 15, 10 mM); 1 in test [3] (setting [7]). The Number unhatched was 0 in test [3] (setting [8]); 19 in test [3] (setting [9]); 28 in test [3] (setting [10]); 44 in test [3] (setting [11]); 6 in test [4] (setting [12]); 7 in test [4] (setting [13]). Moreover, the Number unhatched in test [4] (setting [14]) is on record as 29; in test [4] (setting [15]), 26; in test [4] (setting [16]), 79; in test [4] (setting [17]), 4; in test [4] (setting [18]), 49; in test [4] (setting [19]) it was 23. In addition, the Number unhatched in test [4] (setting [20]) was 53; in test [4] (setting [21]), 4; in test [4] (setting [22]), 70; in test [4] (setting [23]), 63. For the same compound, the “% Inhibition of egg hatch relative to the control” value in test [2] (Example 15, 0.1 mM) was 0%; in test [2] (Example 15, 1 mM), 97%; in test [2] (Example 15, 10 mM), 94%. The “% Inhibition” value amounted to 3% in test [3] (setting [7]); 0% in test [3] (setting [8]); 38% in test [3] (setting [9]); 90% in test [3] (setting [10]); 100% in test [3] (setting [11]); 100% with B. ovis eggs (1 minute exposure). Besides, in the test with B. ovis eggs (10 minute exposure), the “% Inhibition” value amounted to 100%. In test [3] (10 mM inhibitor, then FeSO4 10, 5 or 1 mM), the “effect of added Fe (FeSO4) on the ovicidal effect (in words)” value is listed as “able to reverse the effects”. Further, in the test on B. ovis eggs (10 or 1 minute exposure), the “inhibition of egg hatching (in words)” value is recorded as “completely inhibited”. In addition, the “inhibition of egg hatching in Plutella xylostella (in words)” value in test [4] (0.1 and 0.01 mM) is listed as “no observable effects on egg hatching”; in test [4] (setting [6]), “strong ovicidal effects”; in test [4] (10 and 1 mM, listed as 6,6′-dimethyl-2,2′ dipyridyl) it was “effective at inhibiting egg hatching”. Besides, the “% Inhibition of egg hatch relative to controls” value stood at 12% in test [4] (setting [17]); 0% in test [4] (setting [18]); 100% in test [4] (setting [19]); 100% in test [4] (setting [20]); 0% in test [4] (setting [21]); 7% in test [4] (setting [22]). Also, the “% Inhibition of egg hatch relative to controls” value in test [4] (setting [23]) and in test [4] (setting [24]) was 100% throughout.
Take `O=S(=O)(F)Cc1ccccc1` [PMSF]: the “protease activity … after inhibitor treatment” value in test [1] (5 mM inhibitor) is on record as “No reduction in protease activity”.
